From patent US6737383B1, “Herbicidal oxadiazolidines” (priority 1999, dated 2004)

How the values were obtained:
rape = experiment: Test B pre/postemergence rape; assay type: in vivo, Brassica napus
How it was run: (§1)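 Response is a visual 0-to-10 score relative to untreated plants, where 0 means no effect and 10 means complete control, taken twelve to sixteen days after application. Treatments went onto soil at planting and onto foliage of 1- to 4-leaf plants, using a surfactant-containing non-phytotoxic solvent.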

crabgrass = experiment: Test B pre/postemergence crabgrass; assay type: in vivo, Digitaria sanguinalis
How it was run: as §1

bedstraw = experiment: Test B pre/postemergence bedstraw; assay type: in vivo, Galium aparine
How it was run: as §1

bamyardgrass = experiment: Test B flood test barnyardgrass; assay type: in vivo, Echinochloa crus-galli
How it was run: (§2)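 Plants were grown to the 2-leaf stage before treatment with test chemical, then held in a greenhouse for twelve to sixteen days. Injury was visually rated against untreated controls on a 0–10 scale, where 0 is no effect and 10 is complete control.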

wheat = experiment: Test B pre/postemergence wheat; assay type: in vivo, Triticum aestivum
How it was run: as §1

corn = experiment: Test B pre/postemergence corn; assay type: in vivo, Zea mays
How it was run: as §1

morningglory = experiment: Test B pre/postemergence morningglory; assay type: in vivo, Ipomoea hederacea
How it was run: as §1

surinam grass = experiment: Test B pre/postemergence surinam grass; assay type: in vivo, Brachiaria decumbens
How it was run: as §1

blackgrass = experiment: Test B pre/postemergence blackgrass; assay type: in vivo, Alopecurus myosuroides
How it was run: as §1

cocklebur = experiment: Test B pre/postemergence cocklebur; assay type: in vivo, Xanthium strumarium
How it was run: as §1

giant foxtail = experiment: Test B pre/postemergence giant foxtail; assay type: in vivo, Setaria faberii
How it was run: as §1

sugar beet = experiment: Test B pre/postemergence sugar beet; assay type: in vivo, Beta vulgaris
How it was run: as §1

wild oat = experiment: Test B pre/postemergence wild oat; assay type: in vivo, Avena fatua
How it was run: as §1

purple nutsedge = experiment: Test B pre/postemergence purple nutsedge; assay type: in vivo, Cyperus rotundus
How it was run: as §1

pigweed = experiment: Test B pre/postemergence pigweed; assay type: in vivo, Amaranthus retroflexus
How it was run: as §1

rice = experiment: Test B flood test rice; assay type: in vivo, Oryza sativa
How it was run: as §2

[1] = Postemergence, Rate 62 g/ha, scale 0 to 10, 0 is no effect, 10 is complete control
[2] = Postemergence, Rate 125 g/ha, scale of 0 to 10 where 0 is no effect and 10 is complete control
[3] = Preemergence, Rate 125 g/ha, scale of 0 to 10 where 0 is no effect and 10 is complete control
[4] = Preemergence, Rate 250 g/ha, scale 0 (no effect) to 10 (complete control)
[5] = Rate 62 g/ha, Preemergence, scale 0 to 10
[6] = Rate 250 g/ha, Postemergence, scale 0 to 10, 0 is no effect, 10 is complete control
[7] = Rate 500 g/ha, Postemergence, scale 0 to 10, 0 is no effect, 10 is complete control
[8] = Rate 500 g/ha, Preemergence, scale 0 to 10 (0 no effect, 10 complete control)
[9] = Pre-emergence, Rate 62 g/ha, scale 0 to 10, 0 is no effect, 10 is complete control
[10] = Rate 125 g/ha, Pre-emergence section (flood test species), scale 0 to 10, 0 no effect, 10 complete control
[11] = Rate 250 g/ha, Pre-emergence (flood test species), scale 0 to 10, 0 is no effect, 10 is complete control
[12] = Rate 500 g/ha, Pre-emergence section of Table B, 0 to 10 scale (0 no effect, 10 complete control)

SMILES: CC(C)N(C(=O)n1oc(=O)n(CC2=NOCCO2)c1=O)c1ccc(F)cc1F [Compound 758]
- Plant response rating, Rape (rape; [1]): 0
- Rape plant response rating (rape; [2]): 0
- Plant response rating, Rape (rape; [3]): 4
- Rape plant response rating (rape; [4]): 4
- Rape plant response rating (rape; [5]): 0
- Rape plant response rating (rape; [6]): 0
- Rape plant response rating (rape; [7]): 2
- Rape plant response rating (rape; [8]): 8
- Plant response rating, Crabgrass (crabgrass; [1]): 2
- Crabgrass plant response rating (crabgrass; [2]): 3
- Plant response rating, Crabgrass (crabgrass; [3]): 9
- Crabgrass plant response rating (crabgrass; [4]): 10
- Crabgrass plant response rating (crabgrass; [5]): 9
- Crabgrass plant response rating (crabgrass; [6]): 8
- Crabgrass plant response rating (crabgrass; [7]): 9
- Crabgrass plant response rating (crabgrass; [8]): 10
- Bedstraw plant response rating (bedstraw; [2]): 7
- Plant response rating, Bedstraw (bedstraw; [3]): 1
- Bedstraw plant response rating (bedstraw; [4]): 3
- Bedstraw plant response rating (bedstraw; [5]): 0
- Bedstraw plant response rating (bedstraw; [6]): 7
- Bedstraw plant response rating (bedstraw; [7]): 8
- Bedstraw plant response rating (bedstraw; [8]): 4
- Barnyardgrass plant response rating (bamyardgrass; [9]): 0
- Barnyardgrass plant response rating (bamyardgrass; [10]): 0
- Barnyardgrass plant response rating (bamyardgrass; [11]): 0
- Barnyardgrass plant response rating (bamyardgrass; [12]): 0
- Plant response rating, Wheat (wheat; [1]): 0
- Plant response rating, Wheat (wheat; [3]): 5
- Wheat plant response rating (wheat; [4]): 5
- Wheat plant response rating (wheat; [5]): 4
- Wheat plant response rating (wheat; [6]): 5
- Wheat plant response rating (wheat; [7]): 6
- Wheat plant response rating (wheat; [8]): 7
- Plant response rating, Corn (corn; [1]): 0
- Corn plant response rating (corn; [2]): 0
- Plant response rating, Corn (corn; [3]): 0
- Corn plant response rating (corn; [5]): 0
- Corn plant response rating (corn; [6]): 0
- Corn plant response rating (corn; [7]): 3
- Corn plant response rating (corn; [8]): 3
- Plant response rating, Morningglory (morningglory; [1]): 2
- Morningglory plant response rating (morningglory; [2]): 4
- Plant response rating, Morningglory (morningglory; [3]): 0
- Morningglory plant response rating (morningglory; [4]): 0
- Morningglory plant response rating (morningglory; [5]): 0
- Morningglory plant response rating (morningglory; [6]): 4
- Morningglory plant response rating (morningglory; [7]): 8
- Morningglory plant response rating (morningglory; [8]): 0
- Plant response rating, B. signalgrass (surinam grass; [1]): 4
- B. signalgrass plant response rating (surinam grass; [2]): 5
- B. signalgrass plant response rating (surinam grass; Preemergence, Rate 62 g/ha, scale of 0 to 10 where 0 is no effect and 10 is complete control): 6
- Plant response rating, B. signalgrass (surinam grass; [3]): 6
- B. signalgrass plant response rating (surinam grass; [4]): 7
- B. signalgrass plant response rating (surinam grass; [6]): 6
- B. signalgrass plant response rating (surinam grass; [7]): 7
- B. signalgrass plant response rating (surinam grass; [8]): 8
- Plant response rating, Blackgrass (blackgrass; [1]): 3
- Blackgrass plant response rating (blackgrass; [2]): 6
- Plant response rating, Blackgrass (blackgrass; [3]): 8
- Blackgrass plant response rating (blackgrass; [4]): 8
- Blackgrass plant response rating (blackgrass; [5]): 6
- Blackgrass plant response rating (blackgrass; [6]): 6
- Blackgrass plant response rating (blackgrass; [7]): 6
- Blackgrass plant response rating (blackgrass; [8]): 9
- Plant response rating, Cocklebur (cocklebur; [1]): 0
- Cocklebur plant response rating (cocklebur; [2]): 0
- Plant response rating, Cocklebur (cocklebur; [3]): 0
- Cocklebur plant response rating (cocklebur; [4]): 0
- Cocklebur plant response rating (cocklebur; [5]): 0
- Cocklebur plant response rating (cocklebur; [6]): 4
- Cocklebur plant response rating (cocklebur; [7]): 4
- Cocklebur plant response rating (cocklebur; [8]): 0
- Plant response rating, Giant foxtail (giant foxtail; [1]): 8
- Giant foxtail plant response rating (giant foxtail; [2]): 9
- Plant response rating, Giant foxtail (giant foxtail; [3]): 9
- Giant foxtail plant response rating (giant foxtail; [4]): 10
- Giant foxtail plant response rating (giant foxtail; [5]): 9
- Giant foxtail plant response rating (giant foxtail; [6]): 9
- Giant foxtail plant response rating (giant foxtail; [7]): 9
- Giant foxtail plant response rating (giant foxtail; [8]): 10
- Plant response rating, Sugarbeets (sugar beet; [1]): 0
- Plant response rating, Sugarbeets (sugar beet; [3]): 7
- Sugarbeets plant response rating (sugar beet; [4]): 7
- Sugarbeets plant response rating (sugar beet; [5]): 5
- Sugarbeets plant response rating (sugar beet; [6]): 3
- Sugarbeets plant response rating (sugar beet; [7]): 8
- Sugarbeets plant response rating (sugar beet; [8]): 8
- Plant response rating, Wild oats (wild oat; [1]): 0
- Plant response rating, Wild oats (wild oat; [3]): 8
- Wild oats plant response rating (wild oat; [4]): 8
- Wild oats plant response rating (wild oat; [5]): 5
- Wild oats plant response rating (wild oat; [6]): 1
- Wild oats plant response rating (wild oat; [7]): 2
- Wild oats plant response rating (wild oat; [8]): 9
- Plant response rating, Nutsedge (purple nutsedge; [1]): 0
- Nutsedge plant response rating (purple nutsedge; [2]): 0
- Plant response rating, Nutsedge (purple nutsedge; [3]): 0
- Nutsedge plant response rating (purple nutsedge; [4]): 0
- Nutsedge plant response rating (purple nutsedge; [5]): 0
- Nutsedge plant response rating (purple nutsedge; [6]): 0
- Nutsedge plant response rating (purple nutsedge; [7]): 0
- Plant response rating, Redroot pigweed (pigweed; [1]): 7
- Redroot pigweed plant response rating (pigweed; [2]): 8
- Plant response rating, Redroot pigweed (pigweed; [3]): 8
- Redroot pigweed plant response rating (pigweed; [4]): 8
- Redroot pigweed plant response rating (pigweed; [5]): 8
- Redroot pigweed plant response rating (pigweed; [6]): 8
- Redroot pigweed plant response rating (pigweed; [7]): 8
- Redroot pigweed plant response rating (pigweed; [8]): 10
- Rice plant response rating (rice; [9]): 0
- Rice plant response rating (rice; [10]): 0
- Rice plant response rating (rice; [11]): 0
- Rice plant response rating (rice; [12]): 0
